US12016847B2, “Methods of treating prostate cancer” (Bristol-Myers Squibb Company, priority 2021, dated 2024)

What was measured:
[1] = test system: HEXIM1; test: Gene expression analysis (qPCR), HEXIM1 in VCaP cells; assay type: cell-based; settings: 48 h
Method: (§1) VCaP, LNCaP, 22Rv.1, DU145 and PC3 cancer cell lines were obtained from ATCC. VCaP were cultured in DMEM media supplemented with 8% FBS, LNCaP, 22Rv.1 and DU145 were cultured in RPMI1640 media supplemented with 10% FBS, and PC3 were cultured in F12K media supplemented with 10% FBS.
(§2) Cells were plated in a 6-well format and were allowed to adhere 24 h before treatment. Cells were treated for 48 h before collecting them. RNA was purified from cells using the RNeasy kit (Qiagen) according to the manufacturer's instructions. Quantitative RTPCR was performed using the TaqMan assay (Thermo Fisher Scientific) on the ABI QuantStudio 7 Flex Real-Time PCR System.

[2] = test system: HEXIM1; test: Gene expression analysis (qPCR), HEXIM1 in 22Rv.1 cells; assay type: cell-based; settings: 48 h
Method: as §1, §2

[3] = test system: Neuroendocrine prostate cancer models; test: Proliferation assay, all Neuroendocrine prostate cancer models tested (summary); assay type: cell-based; settings: DU145 and PC3 models, summary statement
Method: as §1
(§3) Cells were plated in a 96-well format and were allowed to adhere 24 h before treatment. Drugs were titrated 1:3 from 1 μM to 0.1 nM with 9 doses in triplicate. Cell proliferation was measured on the day of treatment (Day 0) and on Day 3 using Cell Titer-Glo reagent (Promega) according to the manufacturer's instructions. Cell growth normalized to the DMSO vehicle control and to Day 0 was fitted by nonlinear regression using GraphPad Prism 7.03 (GraphPad Software, Inc.).

[4] = test system: TMPRSS2; test: Gene expression analysis (qPCR), TMPRSS2 in 22Rv.1 cells; assay type: cell-based; settings: 48 h
Method: as §1, §2

[5] = test system: HEXIM1; test: Gene expression analysis (qPCR), HEXIM1 in LNCaP cells; assay type: cell-based, human; settings: 48 h
Method: as §1, §2

[6] = test system: MYC; test: Gene expression analysis (qPCR), MYC in 22Rv.1 cells; assay type: cell-based; settings: 48 h
Method: as §1, §2

[7] = test system: 22Rv.1 cells; test: Proliferation assay (Cell Titer-Glo), 22Rv.1 cells; assay type: cell-based; settings: Homo sapiens, 22Rv1, 72 h, 3 days
Method: as §1, §3

[8] = test system: VCaP cells; test: Proliferation assay (Cell Titer-Glo), VCaP cells; assay type: cell-based; settings: 3 days
Method: as §1, §3

[9] = test system: MYC; test: Gene expression analysis (qPCR), MYC in VCaP cells; assay type: cell-based; settings: 48 h
Method: as §1, §2

[10] = test system: PC3 cells; test: Proliferation assay (Cell Titer-Glo), PC3 cells; assay type: cell-based; settings: 3 days
Method: as §1, §3

[11] = test system: KLK3; test: Gene expression analysis (qPCR), KLK3 in 22Rv.1 cells; assay type: cell-based; settings: 48 h
Method: as §1, §2

[12] = test system: MYC; test: Gene expression analysis (qPCR), MYC in LNCaP cells; assay type: cell-based, human; settings: 48 h
Method: as §1, §2

[13] = test system: TMPRSS2; test: Gene expression analysis (qPCR), TMPRSS2 in VCaP cells; assay type: cell-based; settings: 48 h
Method: as §1, §2

[14] = test system: LNCaP cells; test: Proliferation assay (Cell Titer-Glo), LNCaP cells; assay type: cell-based, human; settings: 3 days of treatment, at 1 uM, related to Day 0 and DMSO
Method: as §1, §3

[15] = test system: DU145 cells; test: Proliferation assay (Cell Titer-Glo), DU145 cells; assay type: cell-based; settings: 3 days
Method: as §1, §3

[16] = test system: KLK3; test: Gene expression analysis (qPCR), KLK3 in LNCaP cells; assay type: cell-based, human; settings: 48 h
Method: as §1, §2

[17] = test system: KLK3; test: Gene expression analysis (qPCR), KLK3 in VCaP cells; assay type: cell-based; settings: 48 h
Method: as §1, §2

Structure (SMILES): Cc1nnn(C)c1-c1cnc2c3ccc(C(C)(C)O)cc3n([C@H](c3ccccc3)C3CCOCC3)c2c1 [Compound A, 2-[3-(1,4-dimethyl-1H-1,2,3-triazol-5-yl)-5-[(S)-(oxan-4-yl)(phenyl)methyl]-5H-pyrido[3,2-b]indol-7-yl]propan-2-ol]
- HEXIM1 upregulated compared to DMSO ([1]; 4 nM): 968.0%
- HEXIM1 upregulated compared to DMSO ([1]; 40 nM): 1257.5%
- induction of HEXIM1 ([2]; 4 nM): 31%
- upregulation of HEXIM1 ([2]; 40 nM): 91.5%
- reduction of cell proliferation in all Neuroendocrine prostate cancer models tested [3]: ≥ 61.9%
- reduction of TMPRSS2 compared to DMSO ([4]; 4 nM): 97.0%
- reduction of TMPRSS2 compared to DMSO ([4]; 40 nM): 97.8%
- upregulation of HEXIM1 ([5]; 4 nM): 446.8%
- upregulation of HEXIM1 ([5]; 40 nM): 533.3%
- downregulation of MYC ([6]; 4 nM): 98.5%
- downregulation of MYC ([6]; 40 nM): 99.3%
- IC50 [7]: 1.7 nM
- growth arrest of VCaP proliferation ([8]; at 0.1 uM, related to Day 0 and DMSO): 100%
- cytotoxic effect on VCaP cells ([8]; at the highest concentrations): cytotoxic effects
- reduction in MYC expression ([9]; 4 nM): 91.4%
- MYC downregulation ([9]; 40 nM): 95.7%
- reduction of PC3 proliferation [10]: 67%
- IC50 ([10]; Homo sapiens, PC-3, 72 h): 4.1 nM
- downregulation of KLK3 ([11]; 4 nM): 99.9%
- downregulation of KLK3 ([11]; 40 nM): 99.8%
- downregulation of MYC ([12]; 4 nM): 84.1%
- downregulation of MYC ([12]; 40 nM): 93.6%
- downregulation of TMPRSS2 ([13]; 4 nM): 32.8%
- downregulation of TMPRSS2 ([13]; 40 nM): 51.9%
- growth arrest of LNCaP cells [14]: 100%
- reduction of DU145 proliferation [15]: 61.9%
- downregulation of KLK3 ([16]; 4 nM): 58.8%
- downregulation of KLK3 ([16]; 40 nM): 92.0%
- downregulation of KLK3 compared to DMSO ([17]; 4 nM): 96.9%
- downregulation of KLK3 compared to DMSO ([17]; 40 nM): 99.4%
